Tests used:
E. coli ATCC 25922 = assay: Bacterial cytological profiling (Example 6), E. coli; type: cell-based;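 for effect on cell envelope: tested at 1 0.5 and 0.25 times MIC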
Protocol: (§1) This bacterial cytological profiling (BCP) study uses methods and materials described previously by Nonejuie, P., Burkart, M., Poglianoa, K., Pogiano, J. (2013). Bacterial cytological profiling rapidly identifies the cellular pathways targeted by antibacterial molecules. Proc. Natl. Acad. Sci. U.S.A. 110(40):16169-16174. doi: 10.1073/pnas.1311066110.
(§2) Wild type strains of E. coli ATCC 25922 or P. aeruginosa K2732 are grown in rich media (unbuffered 2× Lysogeny broth [LB]) at 30 C to an OD600˜0.4. These cultures are then split and each sample treated with the appropriate concentration of Nu-8 in unbuffered or buffered LB (final mixture OD600˜0.1). Cells exposed without Nu-8 are buffered to pH 4 with phosphoric acid.
(§3) The BCP is performed in LB media buffered to pH 4. The minimum inhibitory concentration (MIC) is measured for Nu-3, Nu-4, Nu-5, and Nu-8 against each bacterial strain. As one of ordinary skill in the art understands, minimum inhibitory concentrations are the lowest concentration of an antimicrobial that will inhibit the visible growth of a microorganism after overnight incubation. […] Cellular viability is assayed at three time points (5 minutes and 4 and 24 h following the onset of treatment).
(§4) For imaging E. coli, treated cells are stained with 1 μg/Ml FM4-64, 2 μg/mL DAPI, and 0.5 μM SYTOXGreen (Molecular Probes/Invitrogen). P. aeruginosa samples are stained 0.5 μM SYTOX Green, 28 μg/mL DAPI, and 4.5 μg/mL FM 4-64. Cells are transferred to an agarose pad (20% LB, 1% agarose) for imaging as described in Pogliano, J., Osborne, N., Sharp, M. D., Abanes-De Mello, A., Perez, A., Sun, Y.-L. and Pogliano, K. (1999), A vital stain for studying membrane dynamics in bacteria: a novel mechanism controlling septation during Bacillus subtilis sporulation. Molecular Microbiology, 31: 1149-1159. doi:10.1046/j.1365-2958.1999.01255.x.

[1] = system: Streptococcus pneumoniae (PRSP); assay: MIC at pH 3.5 (CLSI, Mueller-Hinton broth); type: cell-based
E. coli (ATCC 25922) = assay: Time kill assay in saline at pH 3.5 (Example 27); type: cell-based; conditions: for Log10 CFU/mL: pH 3.5
Protocol: Log10 5 CFU of E. coli (ATCC 25922) were suspended in saline. Additionally, a sample of the saline only was prepared as a vehicle control (V.C.). Solutions of Nu-3, Nu-8, and Nu-10 at varying concentrations were adjusted to pH 3.5 with citric acid and added to the E. coli suspensions. At each time point (0, 1, 2.5, 5, 10, and 20 minutes), the treated bacterial suspensions were plated and incubated for 24 hrs, and each plate was read to determine the CFU count.
Tables 12-14 provide the time kill assay data for Nu-3 (Table 12), Nu-8 (Table 13) and Nu-10 (Table 14) against E. coli.

Citrobacter species = assay: MIC at pH 3.5 (CLSI, Mueller-Hinton broth); type: cell-based; conditions: 5 isolates
Protocol: (§5) Bacterial strains evaluated in this study include Escherichia coli, Klebsiella spp, Serratia marcescens, Proteus mirabilis/vulgaris, Citrobacter spp, Providencia spp, Morganella morganii, Pseudomonas aeruginosa, Staphylococcus aureus (MRSA only), and Enterococcus faecalis. Nu-8 test solutions are adjusted to pH 3.5 with citric acid, and MIC is evaluated per the CLSI methods in Mueller-Hinton broth supplemented accordingly to facilitate growth of specific strains.

Serratia marcescens = assay: MIC at pH 3.5 (CLSI, Mueller-Hinton broth); type: cell-based; conditions: 5 isolates
Protocol: as §5

Enterococcus faecalis = assay: MIC at pH 3.5 (CLSI, Mueller-Hinton broth); type: cell-based; conditions: 5 isolates
Protocol: as §5

[2] = system: Proteus mirabilis/vulgaris; assay: MIC at pH 3.5 (CLSI, Mueller-Hinton broth); type: cell-based; conditions: 5 isolates
Protocol: as §5

Pseudomonas aeruginosa [3] = assay: MIC at pH 3.5 (CLSI, Mueller-Hinton broth); type: cell-based; conditions: 20 isolates
Protocol: as §5

Morganella morganii = assay: MIC at pH 3.5 (CLSI, Mueller-Hinton broth); type: cell-based; conditions: 5 isolates
Protocol: as §5

Klebsiella pneumoniae = assay: MIC at pH 3.5 (CLSI, Mueller-Hinton broth); type: cell-based; conditions: 5 isolates
Protocol: as §5

Escherichia coli [4] = assay: MIC at pH 3.5 (CLSI, Mueller-Hinton broth); type: cell-based; conditions: 5 isolates
Protocol: as §5

Providencia species = assay: MIC at pH 3.5 (CLSI, Mueller-Hinton broth); type: cell-based; conditions: 5 isolates
Protocol: as §5

[5] = system: Staphylococcus aureus (MRSA); assay: MIC at pH 3.5 (CLSI, Mueller-Hinton broth); type: cell-based; conditions: 20 isolates
Protocol: as §5

pKa measurement = type: physicochemical
[6] = system: Staphylococcus aureus (MRSA only); assay: MIC against a single isolate (Example 26); type: cell-based; conditions: single isolate, read-out: S. aureus MIC
Protocol: as §5
(§6) MIC was determined as per Example 9 using LAI-101, LAI-102, Nu-10, LAI-105, LAI-106, Nu-3, and Nu-8 against a single isolate of Escherichia coli. Pseudomonas aeruginosa, Staphylococcus aureus (MRSA only), and Candida Albicans. For all microbe species, the LAI-101, LAI-102, Nu-10, LAI-105, and LAI-106 all perform at least as well as, and in many experiments better than, Nu-8 and Nu-3, which are both already quite active compounds.

Pseudomonas aeruginosa [7] = assay: MIC against a single isolate (Example 26); type: cell-based; conditions: single isolate, read-out: P. aeruginosa MIC
Protocol: as §5, §6

Escherichia coli [8] = assay: MIC against a single isolate (Example 26); type: cell-based; conditions: single isolate, read-out: E. coli MIC
Protocol: as §5, §6

Candida Albicans = assay: MIC against a single isolate (Example 26); type: cell-based; conditions: single isolate, read-out: C. albicans MIC
Protocol: as §5, §6

Haemophilus influenzae = assay: MIC at pH 3.5 (CLSI, Mueller-Hinton broth); type: cell-based; conditions: 5 isolates
P. aeruginosa K2732 = assay: Bacterial cytological profiling (Example 6), P. aeruginosa; type: cell-based;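 for effect on cell envelope: tested at 1 0.5 and 0.25 times MIC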
Protocol: as §1, §2, §3, §4

CCCCOP(=O)(O)OC[C@H]1O[C@@H](n2ccc(N)nc2=O)C[C@@H]1OP(=O)(O)OCCCC [Nu-8, sodium ((2R,3S,5R)-5-(4-amino-2-oxopyrimidin-1(2H)-yl)-3-((butoxyoxidophosphor-yl)oxy)tetrahydrofuran-2-yl)methyl butyl phosphate]
effect on cell envelope (E. coli ATCC 25922; BCP): affect the cell envelope
cell membrane permeability (E. coli ATCC 25922; buffered pH 4 or unbuffered LB): increase cell membrane permeability
DNA condensation (E. coli ATCC 25922; higher treatment concentrations, buffered pH 4): causes DNA condensation
MIC [1]: 9.38 to 18.8 mg/mL
Log10 CFU/mL (E. coli (ATCC 25922); 2.5% solution, 0 min): 5.20 Log10 CFU/mL
Log10 CFU/mL (E. coli (ATCC 25922); 2.5% solution, 1 min): 4.93 Log10 CFU/mL
Log10 CFU/mL (E. coli (ATCC 25922); 2.5% solution, 2.5 min): 4.90 Log10 CFU/mL
Log10 CFU/mL (E. coli (ATCC 25922); 2.5% solution, 5 min): 4.93 Log10 CFU/mL
Log10 CFU/mL (E. coli (ATCC 25922); 2.5% solution, 10 min): 4.90 Log10 CFU/mL
Log10 CFU/mL (E. coli (ATCC 25922); 2.5% solution, 20 min): 4.93 Log10 CFU/mL
Log10 CFU/mL (E. coli (ATCC 25922); 5% solution, 0 min): 5.20 Log10 CFU/mL
Log10 CFU/mL (E. coli (ATCC 25922); 5% solution, 1 min): 4.88 Log10 CFU/mL
Log10 CFU/mL (E. coli (ATCC 25922); 5% solution, 2.5 min): 4.92 Log10 CFU/mL
Log10 CFU/mL (E. coli (ATCC 25922); 5% solution, 5 min): 4.90 Log10 CFU/mL
Log10 CFU/mL (E. coli (ATCC 25922); 5% solution, 10 min): 4.95 Log10 CFU/mL
Log10 CFU/mL (E. coli (ATCC 25922); 5% solution, 20 min): 4.90 Log10 CFU/mL
Log10 CFU/mL (E. coli (ATCC 25922); 10% solution, 0 min): 5.20 Log10 CFU/mL
Log10 CFU/mL (E. coli (ATCC 25922); 10% solution, 1 min): 4.86 Log10 CFU/mL
Log10 CFU/mL (E. coli (ATCC 25922); 10% solution, 2.5 min): 4.79 Log10 CFU/mL
Log10 CFU/mL (E. coli (ATCC 25922); 10% solution, 5 min): 4.76 Log10 CFU/mL
Log10 CFU/mL (E. coli (ATCC 25922); 10% solution, 10 min): 4.71 Log10 CFU/mL
Log10 CFU/mL (E. coli (ATCC 25922); 10% solution, 20 min): 4.75 Log10 CFU/mL
kill of the bacteria (E. coli (ATCC 25922); concentration of 10%, at 20 mins): modest kill
MIC (Citrobacter species): 18.8 to 37.5 mg/mL
MIC (Serratia marcescens): 37.5 to 75 mg/mL
MIC (Enterococcus faecalis): 4.69 to 18.8 mg/mL
MIC [2]: 4.69 to 18.8 mg/mL
MIC (Pseudomonas aeruginosa [3]): 9.38 to 18.8 mg/mL
MIC50 (Pseudomonas aeruginosa [3]): 18.8 mg/mL
MIC90 (Pseudomonas aeruginosa [3]): 18.8 mg/mL
MIC (Morganella morganii): 18.8 mg/mL
MIC (Klebsiella pneumoniae): 37.5 to 75 mg/mL
MIC (Escherichia coli [4]): 37.5 mg/mL
MIC (Providencia species): 9.38 to 37.5 mg/mL
MIC [5]: 9.38 to 37.5 mg/mL
MIC50 [5]: 18.8 mg/mL
MIC90 [5]: 37.5 mg/mL
pKa (pKa measurement): 3.2
MIC [6]: > 50 mg/mL
MIC (Pseudomonas aeruginosa [7]): > 50 mg/mL
MIC (Escherichia coli [8]): > 50 mg/mL
MIC (Candida Albicans): > 50 mg/mL
MIC (Haemophilus influenzae): 4.69 to 9.38 mg/mL
effect on cell envelope (P. aeruginosa K2732; BCP): affect the cell envelope
cell membrane permeability (P. aeruginosa K2732; buffered pH 4 or unbuffered LB): increase cell membrane permeability

Reference: patent US12054509B2, “Antimicrobial compounds, compositions, and uses thereof” (Lakewood Amedex, Inc., priority 2017, dated 2024)
